According to EP1790349A1:

Tests used:
Rauscher MuLV = experiment: Rauscher Murine Virus (Rauscher MuLV) system in vivo, splenomegaly; details: rivabirin control, dose not given; in comparison with infected animals that received no treatment
Neisseria meningitides = details: disc 6: NaCl 400 mg/mL (control)
Salmonella tifi = type: cell-based; details: disc 6: NaCl 400 mg/mL (control)
Brucella suis = type: cell-based; details: disc 6: NaCl 400 mg/mL (control)
Neisseria gonorrhoeae = details: disc 6: NaCl 400 mg/mL (control)
Shigella dysenteriae = type: cell-based; details: disc 6: NaCl 400 mg/mL (control)
Streptococcus aureus = details: disc 6: NaCl 400 mg/mL (control)
Proteus vulgaris = details: disc 6: NaCl 400 mg/mL (control)
Streptococcus pyogenes = details: disc 6: NaCl 400 mg/mL (control)
Escherichia coli = details: disc 6: NaCl 400 mg/mL (control)
Klebsiela = details: disc 6: NaCl 400 mg/mL (control)
Streptococcus pneumoniae = details: disc 6: NaCl 400 mg/mL (control)
Pseudomona aeruginosa = details: disc 6: NaCl 400 mg/mL (control)
Shigella flexneri = details: disc 6: NaCl 400 mg/mL (control)
Haemophilus influenzae = details: disc 6: NaCl 400 mg/mL (control)

NC(=O)c1ncn([C@@H]2O[C@H](CO)[C@@H](O)[C@H]2O)n1 [rivabirin]
reduction of the spleen size (Rauscher MuLV): 74%

[Cl-].[Na+] [NaCl]
inhibitory halos (Neisseria meningitides): 6 mm | inhibitory halos (Salmonella tifi): 6 mm | inhibitory halos (Brucella suis): 6 mm | inhibitory halos (Neisseria gonorrhoeae): 14 mm | inhibitory halos (Shigella dysenteriae): 6 mm | inhibitory halos (Streptococcus aureus): 6 mm | inhibitory halos (Proteus vulgaris): 6 mm | inhibitory halos (Streptococcus pyogenes): 6 mm | inhibitory halos (Escherichia coli): 6 mm | inhibitory halos (Klebsiela): 6 mm | inhibitory halos (Streptococcus pneumoniae): 6 mm | inhibitory halos (Pseudomona aeruginosa): 6 mm | inhibitory halos (Shigella flexneri): 6 mm | inhibitory halos (Haemophilus influenzae): 6 mm
